# Source: patent publication US12454529B2, “Piperazine cyclic ureas” (SIRONAX LTD., priority 2020, dated 2025)
# Tested on: HT-29 cells
# Experiment: HT-29 cell necrosis/necroptosis inhibition (TNF-α + SMAC mimetic + zVAD-FMK; CellTiter-Glo cell viability)
# Assay type: cell-based
# Settings: Homo sapiens; HT-29 cells, TNF-α 10 ng/ml + SMAC mimetic 6 μM + zVAD-FMK 10 μM, 20 hours; geometric mean, 10 points in duplicate; read-out: EC50 (Cell activity; Necrosis/Necroptosis Inhibitory Activity, Compounds 1-142)
# How it was run: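 HT-29 cells (~5,000/well) were switched to FBS-free McCOY's 5A holding TNF-α (10 ng/ml), SMAC mimetic (6 μM) and zVAD-FMK (10 μM), then dosed with a 10-point 1:3 series for 20 h at 37 °C. CellTiter-Glo luminescence gave viability; geometric mean EC50 from duplicates.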
row,Compound,EC50 [nM]
1,"Cc1cc(-c2nc(N3CCN(C(=O)N4N=CC[C@H]4c4cc(F)cc(F)c4)CC3)ccc2F)n(C)n1 [Compound 115, (S)-(5-(3,5-difluorophenyl)-4,5-dihydro-1H-pyrazol-1-yl)(4-(6-(1,3-dimethyl-1H-pyrazol-5-yl)-5-fluoropyridin-2-yl)piperazin-1-yl)methanone]",0.1 to 100
2,"COC(=O)c1c[nH]c(-c2ccnc(N3CCN(C(=O)N4N=CC[C@H]4c4cc(F)cc(F)c4)CC3)n2)c1 [Compound 9, methyl (5)-5-(2-(4-(5-(3,5-difluorophenyl)-4,5-dihydro-1H-pyrazole-1-carbonyl)piperazin-1-yl)pyrimidin-4-yl)-1H-pyrrole-3-carboxylate]",0.1 to 100
3,"Cc1nnc(-c2nc(N3CCN(C(=O)N4N=CC[C@H]4c4cc(F)cc(F)c4)CC3)ncc2F)s1 [Compound 63, (S)-(5-(3,5-difluorophenyl)-4,5-dihydro-1H-pyrazol-1-yl)(4-(5-fluoro-4-(5-methyl-1,3,4-thiadiazol-2-yl)pyrimidin-2-yl)piperazin-1-yl)methanone]",0.1 to 100
4,"Cc1[nH]nc(CO)c1-c1nc(N2CCN(C(=O)N3N=CC[C@H]3c3cc(F)cc(C#N)c3)CC2)ncc1F [Compound 74, (S)-3-fluoro-5-(1-(4-(5-fluoro-4-(3-(hydroxymethyl)-5-methyl-1H-pyrazol-4-yl)pyrimidin-2-yl)piperazine-1-carbonyl)-4,5-dihydro-1H-pyrazol-5-yl)benzonitrile]",0.1 to 100
5,"CCn1c(C)nn(-c2nc(N3CCN(C(=O)N4N=CC[C@H]4c4cc(F)cc(F)c4)CC3)ncc2F)c1=O [Compound 98, (S)-2-(2-(4-(5-(3,5-difluorophenyl)-4,5-dihydro-1H-pyrazole-1-carbonyl)piperazin-1-yl)-5-fluoropyrimidin-4-yl)-4-ethyl-5-methyl-2,4-dihydro-3H-1,2,4-triazol-3-one]",0.1 to 100
6,"Cn1nncc1-c1nc(N2CCN(C(=O)N3N=CC[C@H]3c3cc(F)cc(F)c3)CC2)ncc1F [Compound 44, (S)-(5-(3,5-difluorophenyl)-4,5-dihydro-1H-pyrazol-1-yl)(4-(5-fluoro-4-(1-methyl-1H-1,2,3-triazol-5-yl)pyrimidin-2-yl)piperazin-1-yl)methanone]",0.1 to 100
7,"O=C(N1CCN(c2ncc(F)c(-c3cnn[nH]3)n2)CC1)N1N=CC[C@H]1c1cc(F)cc(F)c1 [Compound 8, (S)-(5-(3,5-difluorophenyl)-4,5-dihydro-1H-pyrazol-1-yl)(4-(5-fluoro-4-(1H-1,2,3-triazol-5-yl)pyrimidin-2-yl)piperazin-1-yl)methanone]",0.1 to 100
8,"N#Cc1cc(F)cc([C@@H]2CC=NN2C(=O)N2CCN(c3ncc(F)c(-n4cnc(C#N)n4)n3)CC2)c1 [Compound 125, (S)-1-(2-(4-(5-(3-cyano-5-fluorophenyl)-4,5-dihydro-1H-pyrazole-1-carbonyl)piperazin-1-yl)-5-fluoropyrimidin-4-yl)-1H-1,2,4-triazole-3-carbonitrile]",0.1 to 100
9,"Cn1nccc1-c1nc(N2CCN(C(=O)N3N=CC[C@H]3c3cc(F)cc(C#N)c3)CC2)ncc1F [Compound 69, (S)-3-fluoro-5-(1-(4-(5-fluoro-4-(1-methyl-1H-pyrazol-5-yl)pyrimidin-2-yl)piperazine-1-carbonyl)-4,5-dihydro-1H-pyrazol-5-yl)benzonitrile]",0.1 to 100

# Same assay, conditions: Homo sapiens; HT-29 cells, TNF-α 10 ng/ml + SMAC mimetic 6 μM + zVAD-FMK 10 μM, 20 hours; geometric mean, 10 points in duplicate; read-out: EC50 (Cell activity; Necrosis/Necroptosis Inhibitory Activity, Compounds 143-323)
row,Compound,EC50 [nM]
1,Cc1csc(C2CC=NN2C(=O)N2CCN(c3ncc(F)c(-n4nc(C)nc4C)n3)CC2)n1 (stereo not shown) [Compound 215],0.1 to 100
2,"Cc1nc(C2CC=NN2C(=O)N2CCN(c3nc(-c4c(C)cnn4C)ncc3F)CC2)cs1 (stereo not shown) [Compound 158, (4-(2-(1,4-dimethyl-1H-pyrazol-5-yl)-5-fluoropyrimidin-4-yl)piperazinyl)(5-(2-methylthiazol-4-yl)-4,5-dihydro-1H-pyrazol-1-yl)methanone]",0.1 to 100
3,"Cc1nc(C)n(-c2nc(N3CCN(C(=O)N4N=CCC4c4ncccc4Cl)CC3)ncc2Cl)n1 (stereo not shown) [Compound 220, (4-(5-chloro-4-(3,5-dimethyl-1H-1,2,4-triazol-1-yl)pyrimidin-2-yl)piperazin-1-yl)(5-(3-chloropyridin-2-yl)-4,5-dihydro-1H-pyrazol-1-yl)methanone]",0.1 to 100
4,"Cc1nc(C)n(-c2nc(N3CCN(C(=O)N4N=CCC4c4csc(C)n4)CC3)ncc2Cl)n1 (stereo not shown) [Compound 224, (4-(5-chloro-4-(3,5-dimethyl-1H-1,2,4-triazol-1-yl)pyrimidin-2-yl)piperazin-1-yl)(5-(2-methylthiazol-4-yl)-4,5-dihydro-1H-pyrazol-1-yl)methanone]",100 to 1000
5,Cc1nnc(-c2nc(N3CCN(C(=O)N4N=CCC4c4ncccc4Cl)CC3)ncc2F)s1 (stereo not shown) [Compound 210],0.1 to 100
6,Cc1nc(C(=O)O)nn1-c1nc(N2CCN(C(=O)N3N=CC[C@H]3c3cc(F)cc(C#N)c3)CC2)ncc1F [Compound 190],1000 to 10000
7,"Cc1nc(C)n(-c2cc(N3CCN(C(=O)N4N=CC[C@H]4c4cc(F)cc(C#N)c4)CC3)c(F)cn2)n1 [Compound 272, (S)-3-(1-(4-(2-(3,5-dimethyl-1H-1,2,4-triazol-1-yl)-5-fluoropyridin-4-yl)piperazine-1-carbonyl)-4,5-dihydro-1H-pyrazol-5-yl)-5-fluorobenzonitrile]",0.1 to 100
8,"Cc1cc[nH]c(=O)c1-c1nc(N2CCN(C(=O)N3N=CC[C@H]3c3cc(F)cc(C#N)c3)CC2)ncc1F [Compound 164, (S)-3-fluoro-5-(1-(4-(5-fluoro-4-(4-methyl-2-oxo-1,2-dihydropyridin-3-yl)pyrimidin-2-yl)piperazine-1-carbonyl)-4,5-dihydro-1H-pyrazol-5-yl)benzonitrile]",0.1 to 100
9,"Cc1nc(C)n(-c2nc(N3CCN(C(=O)N4N=CCC4c4coc(C)n4)CC3)ncc2F)n1 (stereo not shown) [Compound 211, (4-(4-(3,5-dimethyl-1H-1,2,4-triazol-1-yl)-5-fluoropyrimidin-2-yl)piperazin-1-yl)(5-(2-methyloxazol-4-yl)-4,5-dihydro-1H-pyrazol-1-yl)methanone]",0.1 to 100
10,"Cc1nc(C)n(-c2nc(N3CCN(C(=O)N4N=CC[C@H]4c4cc(F)cc(F)c4)CC3)c(F)cc2F)n1 [Compound 232, (S)-(5-(3,5-difluorophenyl)-4,5-dihydro-1H-pyrazol-1-yl)(4-(6-(3,5-dimethyl-1H-1,2,4-triazol-1-yl)-3,5-difluoropyridin-2-yl)piperazin-1-yl)methanone]",0.1 to 100
11,"Cc1nn(-c2cc(N3CCN(C(=O)N4N=CC[C@H]4c4cc(F)cc(F)c4)CC3)ncn2)c(C)c1C#N [Compound 280, (S)-1-(6-(4-(5-(3,5-difluorophenyl)-4,5-dihydro-1H-pyrazole-1-carbonyl)piperazin-1-yl)pyrimidin-4-yl)-3,5-dimethyl-1H-pyrazole-4-carbonitrile]",0.1 to 100
12,"Cc1nc(C(F)(F)F)nn1-c1nc(N2CCN(C(=O)N3N=CC[C@H]3c3cc(F)cc(C#N)c3)CC2)ncc1F [Compound 207, (S)-3-fluoro-5-(1-(4-(5-fluoro-4-(5-methyl-3-(trifluoromethyl)-1H-1,2,4-triazol-1-yl)pyrimidin-2-yl)piperazine-1-carbonyl)-4,5-dihydro-1H-pyrazol-5-yl)benzonitrile]",0.1 to 100
13,"Cc1cnc(C2CC=NN2C(=O)N2CCN(c3nc(-c4c(C)cnn4C)ncc3F)CC2)s1 (stereo not shown) [Compound 145, (4-(2-(1,4-dimethyl-1H-pyrazol-5-yl)-5-fluoropyrimidin-4-yl)piperazin-1-yl)(5-(5-methylthiazol-2-yl)-4,5-dihydro-1H-pyrazol-1-yl)methanone]",0.1 to 100
14,"CCS(=O)(=O)Nc1c(C)nn(-c2nc(N3CCN(C(=O)N4N=CC[C@H]4c4cc(F)cc(C#N)c4)CC3)ncc2F)c1C [Compound 194, (S)—N-(1-(2-(4-(5-(3-cyano-5-fluorophenyl)-4,5-dihydro-1H-pyrazole-1-carbonyl)piperazin-1-yl)-5-fluoropyrimidin-4-yl)-3,5-dimethyl-1H-pyrazol-4-yl)ethanesulfonamide]",0.1 to 100
15,"Cn1nc(CF)nc1-c1nc(N2CCN(C(=O)N3N=CC[C@H]3c3cc(F)cc(C#N)c3)CC2)ncc1F [Compound 170, (S)-3-fluoro-5-(1-(4-(5-fluoro-4-(3-(fluoromethyl)-1-methyl-1H-1,2,4-triazol-5-yl)pyrimidin-2-yl)piperazine-1-carbonyl)-4,5-dihydro-1H-pyrazol-5-yl)benzonitrile]",0.1 to 100
16,"CCn1ncnc1-c1nc(N2CCN(C(=O)N3N=CC[C@H]3c3cc(F)cc(C#N)c3)CC2)ncc1F [Compound 167, (S)-3-(1-(4-(4-(1-ethyl-1H-1,2,4-triazol-5-yl)-5-fluoropyrimidin-2-yl)piperazine-1-carbonyl)-4,5-dihydro-1H-pyrazol-5-yl)-5-fluorobenzonitrile]",0.1 to 100
17,"CCn1ncnc1-c1nc(N2CCN(C(=O)N3N=CC[C@H]3c3cc(F)cc(C#N)c3)CC2)ncc1Cl [Compound 168, (S)-3-(1-(4-(5-chloro-4-(1-ethyl-1H-1,2,4-triazol-5-yl)pyrimidin-2-yl)piperazine-1-carbonyl)-4,5-dihydro-1H-pyrazol-5-yl)-5-fluorobenzonitrile]",0.1 to 100
18,"Cc1c(N)nn(C)c1-c1ccnc(N2CCN(C(=O)N3N=CC[C@H]3c3cc(F)cc(F)c3)CC2)n1 [Compound 143, (S)-(4-(4-(3-amino-1,4-dimethyl-1H-pyrazol-5-yl)pyrimidinyl)piperazin-1-yl)(5-(3,5-difluorophenyl)-4,5-dihydro-1H-pyrazol-1-yl)methanone]",0.1 to 100
19,"Cc1nc(C)n(-c2nc(N3CCN(C(=O)N4N=CC[C@H]4c4ncc(C)s4)CC3)ncc2F)n1 [Compound 241, (S)-(4-(4-(3,5-dimethyl-1H-1,2,4-triazol-1-yl)-5-fluoropyrimidin-2-yl)piperazin-1-yl)(5-(5-methylthiazol-2-yl)-4,5-dihydro-1H-pyrazol-1-yl)methanone]",0.1 to 100
